Values after ≈ are worked out from the molar mass of the structure shown. Like-named read-outs stand apart in the source and are kept apart here.
Key:
[1] = Log D 7.4 assay (1-octanol / phosphate buffer pH 7.4); type: physicochemical
Description: Phosphate buffer (1 M) was diluted to 20 mM with deionised water and adjusted to pH 7.4 (±0.05) with phosphoric acid or sodium hydroxide. A 1:1 mixture of phosphate buffer (20 mM) and 1-octanol were saturated by tumbling overnight after which time the two phases were separated. Using an automated liquid handler the following procedure was carried out: 20 mM DMSO stocks of assay and control compounds were reformatted to provide cassettes of 4 compounds per well giving a final concentration of 5 mM per compound. In duplicate 5 μL of the cassetted compounds were added to 495 μL 1-octanol (saturated with buffer) followed by 495 μL of buffer (saturated with 1-octanol) in a 96-well plate giving final incubation concentrations of 25 μM (50 μM max concentration in either layer if all compound partitioned into a single matrix). The layers were mixed by aspirating and dispensing the buffer and octanol layers into one another three times. The plate was sealed, shaken for 120 minutes and then centrifuged at 25° C. for 15 min at 4600 rpm. The 1-octanol and buffer layer were sampled separately (ensuring no cross contamination) and the respective samples diluted with 60:40 ACN:0.1 M ammonium acetate pH 7.4 (containing external standard; Sulfisoxazole, assay concentration 120 nM) to obtain final theoretical maximum concentrations of the 1-octanol layer of 0.025 μM, 0.5 μM and a buffer layer concentration of 0.5 μM. The second buffer sample was prepared by diluting the assay buffer layer with acetonitrile (containing external standard; Sulfisoxazole, assay concentration 120 nM) to give a theoretical maximum concentration of 20 μM. The analytical samples were analysed by LC-MS/MS and the Log D calculated as shown:
[formula] Where PA=Peak area and ES=External standard

[2] = molecular target: T1, human ERG potassium channel (hERG) (Homo sapiens, UniProt Q12809); assay: hERG channel tail current recording using in vitro Rapid ICE (automated patch-clamp, QPatch HTX); type: cell-based
T1 construct: expressed in transfected cells; host or cells: HEK293, stably transfected, tetracycline-inducible promoter
In short: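 Automated patch clamp on tetracycline-induced HEK293 hERG cells; pulse −80 to −50 mV 200 ms, +20 mV 4.8 s, −50 mV 5 s tail, extracellular pH 7.4. Compound at 0.3, 3, 30 μM (0.3% DMSO), 5 min exposure; tail current versus vehicle gives % inhibition and estimated IC50.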

[3] = Thermodynamic (Equilibrium) solubility in selected buffer; type: physicochemical; settings: for solubility: aqueous buffer, thermodynamic from solid
In short: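 Powdered compound at 1 mg/mL target in 50 mM phosphate pH 2.0, 50 mM acetate pH 5.5 or 50 mM phosphate pH 7.4, stirred overnight at r.t. in the dark, then 0.45 μm filtered. Filtrate quantified by UPLC-UV peak area against a 0.8 mg/mL DMSO reference.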

[4] = acetate buffer 50 mM, pH 5, Table 24, read-out: Solubility (μg/mL) pH 5
[5] = acetate buffer 50 mM, pH 5.5, Table 25, read-out: Solubility (μg/mL) pH 5.5
[6] = phosphate buffer 50 mM, pH 7.4, Table 24, read-out: Solubility (μg/mL) pH 7.4

T1 sequence (Q12809 whole entry): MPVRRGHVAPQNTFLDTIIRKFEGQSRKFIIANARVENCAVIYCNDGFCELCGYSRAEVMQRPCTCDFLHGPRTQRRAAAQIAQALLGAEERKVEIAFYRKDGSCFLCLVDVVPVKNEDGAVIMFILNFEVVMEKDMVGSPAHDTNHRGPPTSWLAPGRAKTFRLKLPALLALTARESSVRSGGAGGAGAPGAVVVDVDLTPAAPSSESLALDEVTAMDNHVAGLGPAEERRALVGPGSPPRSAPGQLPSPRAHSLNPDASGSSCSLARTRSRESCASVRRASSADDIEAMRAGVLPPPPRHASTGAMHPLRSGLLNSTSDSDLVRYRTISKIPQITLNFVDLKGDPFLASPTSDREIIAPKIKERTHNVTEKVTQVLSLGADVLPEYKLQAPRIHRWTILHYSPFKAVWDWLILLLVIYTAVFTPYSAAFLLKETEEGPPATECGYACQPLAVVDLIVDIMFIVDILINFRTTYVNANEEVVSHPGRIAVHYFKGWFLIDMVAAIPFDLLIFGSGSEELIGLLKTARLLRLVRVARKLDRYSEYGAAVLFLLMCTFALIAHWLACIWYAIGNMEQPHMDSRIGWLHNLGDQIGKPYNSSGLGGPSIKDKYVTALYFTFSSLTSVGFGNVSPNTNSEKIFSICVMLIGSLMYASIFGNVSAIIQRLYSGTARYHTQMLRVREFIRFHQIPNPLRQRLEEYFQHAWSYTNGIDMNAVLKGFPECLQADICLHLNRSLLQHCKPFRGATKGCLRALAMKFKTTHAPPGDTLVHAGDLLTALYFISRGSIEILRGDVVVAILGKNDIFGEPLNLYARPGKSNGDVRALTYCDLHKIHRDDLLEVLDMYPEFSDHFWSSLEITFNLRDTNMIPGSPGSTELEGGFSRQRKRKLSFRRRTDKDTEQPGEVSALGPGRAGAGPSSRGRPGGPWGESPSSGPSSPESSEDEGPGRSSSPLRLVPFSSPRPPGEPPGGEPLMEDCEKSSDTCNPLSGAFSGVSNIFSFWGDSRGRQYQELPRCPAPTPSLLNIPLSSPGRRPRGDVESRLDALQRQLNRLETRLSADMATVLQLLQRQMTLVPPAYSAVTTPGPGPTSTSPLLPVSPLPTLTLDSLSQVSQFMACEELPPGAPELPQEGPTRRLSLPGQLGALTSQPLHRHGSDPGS

Row | Structure (SMILES) | logD at 120 min [1] | IC50 ([2]; Table 24) | IC50 ([2]; Table 26) | solubility [3, 4] | solubility [3, 5] | Solubility (μg/mL) pH 2 ([3]; pH 2, Table 24) | Solubility (μg/mL) pH 2.0 ([3]; pH 2.0, Table 25) | solubility [3, 6] | solubility ([3]; phosphate buffer 50 mM, pH 2, Table 24, read-out: Solubility (μg/mL) pH 2)
1 | O=C(COc1ccc(Cl)c(F)c1)N[C@H]1CC[C@H](c2nnc([C@H]3C[C@@H](OC(F)(F)F)C3)o2)NC1 [Example 50, 2-(4-chloro-3-fluorophenoxy)-N-[(3S,6R)-6-{5-[(1s,3s)-3-(trifluoromethoxy)cyclobutyl]-1,3,4-oxadiazol-2-yl}piperidin-3-yl]acetamide] | 2.7 | 1 to 5 µM | > 5 µM | 78 µg/mL (≈ 158 µM) | 78 µg/mL (≈ 158 µM) | quant.^# | quant.^# | 63 µg/mL (≈ 128 µM) | 
2 | O=C(COc1ccc(Cl)c(F)c1)N[C@H]1CC[C@H](c2nnc(COC(F)(F)F)o2)NC1 [Example 61, 2-(4-chloro-3-fluorophenoxy)-N-[(3S,6R)-6-(5-[(trifluoromethoxy)methyl]-1,3,4-oxadiazol-2-yl}piperidin-3-yl]acetamide] | 2.3 | 1 to 5 µM | 1 to 5 µM | 156 µg/mL (≈ 345 µM) | 156 µg/mL (≈ 345 µM) |  |  | 90 µg/mL (≈ 199 µM) | 907 µg/mL (≈ 2000 µM)

Source: patent US12258338B2, “Modulators of the integrated stress response pathway” (EVOTEC INTERNATIONAL GMBH, priority 2019, dated 2025)
